Results reported in article PMC5813806 (ACS chemical neuroscience, 2016).
“And” between values parts separate entries of the source, which are not always exact repeats. Equal entries are not always repeated. Where two headings read alike, the source gives them in different places. Each block holds one compound with its values, some of them ahead of it.

Assays:
[1] = target: T1, human D2 receptor (CHO-D2R) (Homo sapiens, UniProt P14416); test: [3H]methylspiperone binding to CHO-D2R membranes; conditions: 10 μM; for Affinity to D2R, high-affinity state (result in words): CHO-D2R membranes pretreated with GDP and Na+, Mg2+ buffer; for Binding to D2R in binding screening (result in words): CHO-D2R, regular binding buffer
[2] = target: T1, human D2 receptor (CHO-D2R); test: ERK1/2 phosphorylation; assay type: cell-based; conditions: CHO-D2R cells, 1 μM, 5 min
[3] = target: T2, human D3 receptor (CHO-D3R) (Homo sapiens, UniProt P35462); test: Agonist-induced [35S]GTPγS binding to CHO-D3R membranes; assay type: biochemical
hD3R = hD3R (Homo sapiens, UniProt P35462); test: PathHunter eXpress U2OS D3R β-arrestin-2 recruitment assay; assay type: cell-based
[4] = target: T2, human D3 receptor (CHO-D3R); test: ERK1/2 phosphorylation; assay type: cell-based; conditions: for ERK1/2 phosphorylation, functional screening (result in words): CHO-D3R cells, 5 min
[5] = target: human D3 receptor (HEK-D3R) (Homo sapiens, UniProt P35462); assay type: cell-based; conditions: 1 μM 30 min pretreatment, washes, 1 μM 2 min
[6] = target: T3, human D4 receptor (HEK-D4R) (Homo sapiens, UniProt P21917); test: [3H]methylspiperone binding screening at HEK-D4R; conditions: 10 μM
T3 sequence (P21917 1-419): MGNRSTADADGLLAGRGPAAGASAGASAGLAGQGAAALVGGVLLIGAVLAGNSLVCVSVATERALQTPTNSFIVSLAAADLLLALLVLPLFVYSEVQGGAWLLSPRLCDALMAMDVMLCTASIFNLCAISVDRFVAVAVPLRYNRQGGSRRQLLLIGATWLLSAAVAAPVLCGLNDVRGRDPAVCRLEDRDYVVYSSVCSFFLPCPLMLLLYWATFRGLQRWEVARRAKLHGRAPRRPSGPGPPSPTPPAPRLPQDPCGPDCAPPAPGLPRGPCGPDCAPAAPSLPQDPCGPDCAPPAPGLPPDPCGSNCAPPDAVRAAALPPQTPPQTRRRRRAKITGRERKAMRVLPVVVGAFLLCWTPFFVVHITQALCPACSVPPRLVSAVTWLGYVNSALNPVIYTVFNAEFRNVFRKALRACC

[7] = target: T2, human D3 receptor (CHO-D3R); test: [3H]methylspiperone binding to CHO-D3R membranes; conditions: for Ki: [3H]methylspiperone competition, two-site analysis
[8] = target: T1, human D2 receptor (CHO-D2R); test: Agonist-induced [35S]GTPγS binding to CHO-D2R membranes; assay type: biochemical

T2 sequence (P35462 whole entry): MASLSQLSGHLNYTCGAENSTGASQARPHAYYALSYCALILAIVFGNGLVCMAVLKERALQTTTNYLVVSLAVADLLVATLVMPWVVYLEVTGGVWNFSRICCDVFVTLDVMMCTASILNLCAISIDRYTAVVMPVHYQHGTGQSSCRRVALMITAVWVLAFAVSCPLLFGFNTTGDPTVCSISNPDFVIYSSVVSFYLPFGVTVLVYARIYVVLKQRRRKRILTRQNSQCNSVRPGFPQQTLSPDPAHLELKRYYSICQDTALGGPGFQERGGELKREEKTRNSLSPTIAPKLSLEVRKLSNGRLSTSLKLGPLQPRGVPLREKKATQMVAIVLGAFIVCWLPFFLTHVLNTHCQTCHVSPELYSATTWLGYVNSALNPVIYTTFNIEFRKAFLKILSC
T1 sequence (P14416 whole entry): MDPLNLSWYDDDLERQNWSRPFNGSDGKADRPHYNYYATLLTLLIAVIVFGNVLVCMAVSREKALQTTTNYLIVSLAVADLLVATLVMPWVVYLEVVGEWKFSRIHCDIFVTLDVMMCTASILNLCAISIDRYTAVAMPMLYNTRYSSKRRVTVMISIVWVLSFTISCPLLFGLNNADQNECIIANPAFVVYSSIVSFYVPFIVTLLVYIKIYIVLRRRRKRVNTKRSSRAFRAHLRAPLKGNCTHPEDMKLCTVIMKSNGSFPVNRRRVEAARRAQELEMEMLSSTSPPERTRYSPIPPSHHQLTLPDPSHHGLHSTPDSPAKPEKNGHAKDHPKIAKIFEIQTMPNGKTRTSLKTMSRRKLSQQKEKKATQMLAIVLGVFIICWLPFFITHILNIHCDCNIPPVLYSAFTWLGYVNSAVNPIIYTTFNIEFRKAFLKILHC
Chain of hD3R (P35462 whole entry): as the sequence (P35462 whole entry) above
Chain of human D3 receptor (HEK-D3R) (P35462 whole entry): as above

Binding to D2R in binding screening (result in words) [1]: high binding affinity
SMILES: NCCc1ccc(O)c(O)c1 [DA, dopamine]
Affinity to D2R, high-affinity state (result in words) [1]: higher affinity for D2R than in the regular binding buffer
ERK1/2 phosphorylation, functional screening (result in words) [2]: significantly evoked ERK1/2 phosphorylation

SMILES: CCCN1CCO[C@@H]2c3cc(O)ccc3OC[C@H]21 [PD128907]
[35S]GTPγS binding Emax ([3]; DA effect defined as 100%): 95.1 ± 2.1 % of DA
EC50 ([3]; read-out: [35S]GTPγS binding EC50): 1.19 nM and 1.2 nM
Affinity to D2R, high-affinity state (result in words) [1]: higher affinity for D2R than in the regular binding buffer
Binding to D2R in binding screening (result in words) [1]: high binding affinity
IC50 ([1]; read-out: IC50 for D2R binding, low-affinity state, CHO-D2R in Na+-GTPγS binding buffer): > 10000 nM
β-arrestin recruitment Emax (hD3R; perhaps underestimates from incomplete curves): 100 % of PD128907
EC50 (hD3R; read-out: β-arrestin recruitment EC50, 90 min stimulation): 5.5 ± 0.18 nM
ERK1/2 phosphorylation Emax ([4]; CHO-D3R cells treated 5 min at 37 °C, DA = 100): 100
ERK1/2 phosphorylation, functional screening (result in words) ([4]; 1 μM): significantly activated ERK1/2 phosphorylation
EC50 ([4]; read-out: ERK1/2 phosphorylation EC50, CHO-D3R cells treated 5 min at 37 °C): 7.1 ± 0.5 nM
Desensitization of D3R/ERK1/2 signaling on repeated treatment [5]: significant reduction of ERK1/2 phosphorylation signal
Binding to D4R in binding screening (result in words) [6]: high binding affinity
Binding to D3R in binding screening (result in words) ([7]; CHO-D3R, 10 μM): high binding affinity
Ki ([7]; read-out: Ki-H (high-affinity Ki) to CHO-hD3): 3.7 ± 1.6 nM
Ki ([7]; read-out: Ki-L (low-affinity Ki) to CHO-hD3): 14.6 ± 3.6 nM
[35S]GTPγS binding Emax ([8]; D2R, DA effect defined as 100%): 92.8 ± 1.7 % of DA
EC50 ([8]; read-out: [35S]GTPγS binding EC50, D2R (CHO-D2R membranes)): 103 ± 29.6 nM
ERK1/2 phosphorylation, functional screening (result in words) [2]: significantly evoked ERK1/2 phosphorylation

ERK1/2 phosphorylation, functional screening (result in words) ([4]; 1 μM): reduction in functional effect
Selectivity to D3R in ERK1/2 activation ([4]; CHO-D3R versus CHO-D2R cells, 1 μM): maintained selectivity to D3R
SMILES: CC(N)CCc1ccco1 (centres unmarked) [SK603, 4-(fluran-2-yl)butan-2-amine]
